According to ChEMBL document CHEMBL1782005, “Turnagainolides A and B, cyclic depsipeptides produced in culture by a Bacillus sp.: isolation, structure elucidation, and synthesis” (J Nat Prod, 2011):
Active and inactive are the calls of the source. The calls are words filed in the database; no cut-off is given here.

Biological target: T1, Phosphatidylinositol 3,4,5-trisphosphate 5-phosphatase 1 (Homo sapiens) (UniProt Q92835)
T1 sequence (whole entry): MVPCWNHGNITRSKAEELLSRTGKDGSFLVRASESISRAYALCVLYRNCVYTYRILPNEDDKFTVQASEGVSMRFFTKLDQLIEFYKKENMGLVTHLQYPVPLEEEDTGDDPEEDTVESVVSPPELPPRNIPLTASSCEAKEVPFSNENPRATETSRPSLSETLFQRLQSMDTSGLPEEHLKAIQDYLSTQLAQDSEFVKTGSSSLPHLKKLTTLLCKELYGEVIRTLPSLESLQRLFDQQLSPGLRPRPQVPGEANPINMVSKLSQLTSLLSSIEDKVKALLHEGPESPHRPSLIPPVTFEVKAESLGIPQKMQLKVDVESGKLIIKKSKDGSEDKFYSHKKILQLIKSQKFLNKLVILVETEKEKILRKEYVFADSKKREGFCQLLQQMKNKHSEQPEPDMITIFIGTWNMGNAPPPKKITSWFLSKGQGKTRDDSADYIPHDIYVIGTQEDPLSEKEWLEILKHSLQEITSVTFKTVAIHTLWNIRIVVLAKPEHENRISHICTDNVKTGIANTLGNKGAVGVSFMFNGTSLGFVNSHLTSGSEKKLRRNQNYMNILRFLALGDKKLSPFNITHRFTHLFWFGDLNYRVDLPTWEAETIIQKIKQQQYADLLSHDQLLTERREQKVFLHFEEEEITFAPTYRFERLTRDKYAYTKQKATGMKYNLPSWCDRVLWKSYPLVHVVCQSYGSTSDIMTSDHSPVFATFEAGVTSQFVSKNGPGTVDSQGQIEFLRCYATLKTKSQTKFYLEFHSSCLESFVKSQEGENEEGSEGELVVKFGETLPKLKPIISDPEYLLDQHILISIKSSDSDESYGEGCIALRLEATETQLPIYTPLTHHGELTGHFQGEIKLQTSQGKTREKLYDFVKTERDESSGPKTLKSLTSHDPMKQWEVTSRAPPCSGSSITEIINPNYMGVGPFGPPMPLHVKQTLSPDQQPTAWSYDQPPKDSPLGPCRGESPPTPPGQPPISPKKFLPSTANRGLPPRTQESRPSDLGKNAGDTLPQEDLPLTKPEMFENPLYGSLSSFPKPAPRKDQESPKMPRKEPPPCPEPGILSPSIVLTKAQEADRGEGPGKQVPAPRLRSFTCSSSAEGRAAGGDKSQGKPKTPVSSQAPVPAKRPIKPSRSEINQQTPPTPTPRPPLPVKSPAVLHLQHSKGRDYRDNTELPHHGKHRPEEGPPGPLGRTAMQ
Assay: Activation of SHIP1 using IP4 as substrate at 10 uM preincubated for 10 mins before addition of IP4 measured after 10 mins

Activity	Compound
Active	CC[C@H](C)[C@@H]1NC(=O)[C@@H](C)NC(=O)[C@H](C(C)C)NC(=O)C[C@@H](/C=C/c2ccccc2)OC(=O)[C@H](C(C)C)NC1=O
inactive	CC[C@H](C)[C@@H]1NC(=O)[C@@H](C)NC(=O)[C@H](C(C)C)NC(=O)C[C@H](/C=C/c2ccccc2)OC(=O)[C@H](C(C)C)NC1=O
Active	Cc1cc(O)cc2c1[C@]1(C)CC[C@H]3C(C)(C)CCC[C@]3(C)[C@H]1C2
